Test system: Ap4A-RNA
Test: In vitro Ap4A-RNA decapping assay (cap-labelled RNA, thin-layer chromatography)
Assay type: biochemical
Conditions: recombinant protein 250 nM to 750 nM, 37° C., 30 min, TLC
Procedure: Briefly, using the Ap4A mixture (ATP and Ap4A) or Ap4A instead of ATP for in vitro transcription by MEGAshortscript™ T7 Transcription Kit (Life technologies; Cat. No. AM1354), we produced a 50 nt RNA. Template is the same as making 50 nt RNA for MEFs transfection. Note that if the mixture is used, this nucleotide mixture (ATP and Ap4A) still has all the components (lysine, inorganic pyrophosphatase etc) added during the Ap4A synthesis. In vitro transcription reaction was carried out at 37° C. for at least 4 h in a 20 μL reaction containing 6 pmol DNA template, 2 μL 10× reaction buffer, 2 μL of nucleotides (75 mM CTP, 75 mM UTP, 75 mM GTP), 2 μL of ATP/Ap4A mixture that we produced above, and 2 μL T7 enzyme mix (MEGAshortscript™ Kit, Life technologies, Cat. No. AM1354). After that, 1 μL TURBO DNase was added and incubated at 37° C. for 15 min to remove the DNA template. Unincorporated nucleotides were removed from the RNA preparation by Microspin G-25 Column (GE Healthcare, Cat. No. 27-5325-01), and the process was repeated twice. The radioactively labelled RNA was separated by 10% urea gel. […]
Decapping reaction products were resolved by PEI-cellulose TLC plates (Merk, Cat. No. 1057250001) and developed in 0.45 M (NH4)2SO4 in a glass chamber at room temperature. […] When required, signals were quantified by ImageQuantTL.

DCP2 (NUDT20): recombinant untagged mouse DCP2 catalytic core domain (95-260 aa)
Ap4A-RNA decapping activity: only NUDT2 has Ap4A-RNA decapping activity
